Reference: US20190374533A1, “COMPOUNDS AND METHODS FOR INHIBITING NHE-MEDIATED ANTIPORT IN THE TREATMENT OF DISORDERS ASSOCIATED WITH FLUID RETENTION OR SALT OVERLOAD AND GASTROINTESTINAL TRACT DISORDERS” (Ardelyx, Inc., priority 2008, published 2019)
Where a name gives a salt, the structure may show the parent alone. Read-outs that look alike come from different tables or passages of the source.

Columns and labels:
rat NHE-3 = target: T1, rat NHE-3 (Rattus norvegicus, UniProt P26433); assay: Cell-based assay of NHE-3 activity (Pharmacological Test Example 1); settings: for IC50: read-out: rat NHE-3 Average pIC50 (converted)
T1 construct: expressed in transfected cells; host or cells: Opossum kidney (OK) cells (ATCC), electroporated
How it was run: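 Na+-dependent H+ exchange tracked with the pH-sensitive dye BCECF in opossum kidney cells transiently expressing rat NHE-3. Intracellular acidification by NH4Cl prepulse, then 10 min in ammonium- and Na+-free HEPES, pH 7.4, room temperature. Initial rates averaged over 3-6 replicates give pIC50.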

[1] = Parallel artificial membrane permeability assay (PAMPA); settings: pH 7.4
fecal water content = assay: Pharmacodynamic model: effect of test compounds on fecal water content; format: in vivo, rat; settings: female Sprague Dawley rats, 3 mg/kg oral, feces collected 16 hrs; for % Fecal water: mean of 6
Experimental: Normal female Sprague Dawlev rats (Charles-River laboratories international, Hollister, Calif.), 7-8 weeks old with body weight 175-200 g were acclimated for at least 3 days before proceeding to experiments. The animals were provided food (Harlan Teklad 2018c) and water ad lib, through the experiment. Animals were randomly grouped with 6 rats per group.
The experiments were initiated by orally dosing test compounds at 3 mg/kg in volume of 10 ml/kg. Rats from control group were gavaged with the same volume of vehicle (water). After dosing, rats were placed in metabolic cages for 16 hrs (overnight). Food and water consumption were monitored. After sixteen hours, feces and urine were collected. The percent of fecal water was measured by weighing fecal samples before and after drying.
Representative data of % fecal water content are shown in Table 12 (data are expressed as means, with 6 animals per data point). The differences between control and treated groups were evaluated by one way ANOVA with Dunnett post tests. Results are significant if p<0.05.

[2] = Determination of compound Cmax and AUC; format: in vivo; settings: rat; Sprague-Dawley rats, oral gavage, serum 0.5-4 h; actual oral dose (mg/kg) given
How it was run: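 Sprague-Dawley rats dosed orally by gavage at 2.5 mg/kg; serum sampled at 0.5, 1, 2 and 4 h. Acetonitrile protein precipitation, then LC/MS/MS quantitation against a standard curve.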

[3] = OK cells expressing rat NHE-3, 0-30 uM test compound, 5 uM EIPA

T1 sequence (P26433 29-831): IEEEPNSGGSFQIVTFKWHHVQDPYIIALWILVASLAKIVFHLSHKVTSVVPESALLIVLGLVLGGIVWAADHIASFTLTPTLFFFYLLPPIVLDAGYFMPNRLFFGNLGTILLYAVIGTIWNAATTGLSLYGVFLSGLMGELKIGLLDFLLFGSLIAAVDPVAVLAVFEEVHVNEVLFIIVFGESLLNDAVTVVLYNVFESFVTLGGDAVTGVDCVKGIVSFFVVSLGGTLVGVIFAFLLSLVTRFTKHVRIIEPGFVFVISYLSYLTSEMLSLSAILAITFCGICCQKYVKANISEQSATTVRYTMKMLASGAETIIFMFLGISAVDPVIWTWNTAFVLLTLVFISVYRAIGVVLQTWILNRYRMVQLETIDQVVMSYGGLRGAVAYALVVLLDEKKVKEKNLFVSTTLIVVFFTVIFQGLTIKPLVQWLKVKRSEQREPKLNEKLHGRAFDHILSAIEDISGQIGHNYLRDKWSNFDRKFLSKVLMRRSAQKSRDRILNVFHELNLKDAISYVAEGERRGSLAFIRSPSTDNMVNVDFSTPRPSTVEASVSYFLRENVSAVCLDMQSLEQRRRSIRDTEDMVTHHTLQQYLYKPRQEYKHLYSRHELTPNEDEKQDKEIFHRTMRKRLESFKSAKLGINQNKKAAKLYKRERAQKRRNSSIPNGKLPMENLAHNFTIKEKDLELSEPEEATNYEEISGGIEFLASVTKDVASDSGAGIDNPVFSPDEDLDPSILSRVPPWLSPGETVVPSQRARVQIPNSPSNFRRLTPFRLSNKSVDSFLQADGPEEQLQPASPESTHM

Compound	rat NHE-3 Average pIC50 (rat NHE-3; [3])	Papp A→B at 3 h, 20 uM [1] [×10⁻⁶ cm/s]	% Fecal water (% of control) (fecal water content)	% Fecal water (fecal water content) [%]	other results
NC(N)=Nc1nc(-c2cccc(N3CCN(CCO)CC3)c2)c2cc(Cl)ccc2n1 [Example 68, 2-(6-chloro-4-(3-(4-(2-hydroxyethyl)piperazin-1-yl)phenyl)quinazolin-2-yl)guanidine]	6 to 7	0.35	–	–	–
N=C(N)N1CCN(c2cccc(-c3nc(N=C(N)N)nc4ccc(Cl)cc34)c2)CC1 [Example 60, 4-(3-(6-chloro-2-(diaminomethyleneamino)quinazolin-4-yl)phenyl)piperazine-1-carboximidamide]	6 to 7	0.99	–	–	–
C/C(=C\c1cc(F)c(Oc2ccc(S(=O)(=O)NCc3ccc(CP(=O)(O)O)cc3)cc2)c(F)c1)C(=O)N=C(N)N [Example 52, (E)-4-((4-(4-(3-(diaminomethyleneamino)-2-methyl-3-oxoprop-1-enyl)-2,6-difluorophenoxy)phenylsulfonamido)methyl)benzylphosphonic acid]	5 to 6	1.61	–	–	–
CN1Cc2c(Cl)cc(Cl)cc2[C@H](c2ccc(S(=O)(=O)NCCOCCOCCNC(=O)CCC(=O)NCCOCCOCCNS(=O)(=O)c3ccc([C@@H]4CN(C)Cc5c(Cl)cc(Cl)cc54)cc3)cc2)C1 (single isomer, unassigned) [Example 200, N1,N4-bis(2-(2-(2-(4-((S or R)-6,8-dichloro-2-methyl-1,2,3,4-tetrahydroisoquinolin-4-yl)phenylsulfonamido)ethoxy)ethoxy)ethyl)succinamide bis-hydrochloride salt]	–	–	124% of control	62	IC50 (rat NHE-3; [3]): < 100 nM
CN1Cc2c(Cl)cc(Cl)cc2C(c2cccc(NS(=O)(=O)NCCP(=O)(O)O)c2)C1 (stereo not drawn) [Example 31, 2-(N-(3-(6,8-dichloro-2-methyl-1,2,3,4-tetrahydroisoquinolin-4-yl)phenyl)sulfamoylamino)ethylphosphonic acid]	5 to 6	0.61	–	–	–
CN1Cc2c(Cl)cc(Cl)cc2C(c2ccc(S(=O)(=O)NCCOCCOCCNC(=O)COCC(=O)NCCOCCOCCNS(=O)(=O)c3ccc(C4CN(C)Cc5c(Cl)cc(Cl)cc54)cc3)cc2)C1 (stereo not drawn) [Example 178, 2,2′-oxybis(N-(2-(2-(2-(4-(6,8-dichloro-2-methyl-1,2,3,4-tetrahydroisoquinolin-4-yl)phenylsulfonamido)ethoxy)ethoxy)ethyl)acetamide)]	6 to 7	–	118% of control	59	AUC [2]: < 2 ng·h/mL; Cmax [2]: < 2 ng/mL
CN1Cc2c(Cl)cc(Cl)cc2C(c2ccc(S(=O)(=O)NCCOCCOCCNC(=O)Nc3ccc(NC(=O)NCCOCCOCCNS(=O)(=O)c4ccc(C5CN(C)Cc6c(Cl)cc(Cl)cc65)cc4)cc3)cc2)C1 (stereo not drawn) [Example 239, N,N′-(2,2′-(2,2′-(2,2′-(1,4-phenylenebis(azanediyl))bis(oxomethylene)bis(azanediyl)bis(ethane-2,1-diyl))bis(oxy)bis(ethane-2,1-diyl))bis(oxy)bis(ethane-2,1-diyl))bis(4-(6,8-dichloro-2-methyl-1,2,3,4-tetrahydroisoquinolin-4-yl)benzenesulfonamide)]	–	–	114% of control	58	–
C/C(=C\c1cc(F)c(Oc2ccc(S(=O)(=O)NCCCP(=O)(O)O)cc2)c(F)c1)C(=O)N=C(N)N [Example 54, (E)-3-(4-(4-(3-(diaminomethyleneamino)-2-methyl-3-oxoprop-1-enyl)-2,6-difluorophenoxy)phenylsulfonamido)propylphosphonic acid]	5 to 6	1.3	–	–	–
NC(N)=Nc1nc(-c2ccc(N3CCN(CCO)CC3)cc2)c2cc(Cl)ccc2n1 [Example 69, 2-(6-chloro-4-(4-(4-(2-hydroxyethyl)piperazin-1-yl)phenyl)quinazolin-2-yl)guanidine]	6 to 7	0.3	–	–	–
CN1Cc2c(Cl)cc(Cl)cc2C(c2cccc(S(=O)(=O)NCCOCCOCCNC(=O)NCCCCNC(=O)NCCOCCOCCNS(=O)(=O)c3cccc(C4CN(C)Cc5c(Cl)cc(Cl)cc54)c3)c2)C1 (stereo not drawn) [Example 236, N,N′-(10,17-dioxo-3,6,21,24-tetraoxa-9,11,16,18-tetraazahexacosane-1,26-diyl)bis(3-(6,8-dichloro-2-methyl-1,2,3,4-tetrahydroisoquinolin-4-yl)benzenesulfonamide)]	>7	–	128% of control	64	–
CN1Cc2c(Cl)cc(Cl)cc2C(c2cccc(S(=O)(=O)NCCP(=O)(O)O)c2)C1 (stereo not drawn) [Example 1, 2-(3-(6,8-dichloro-2-methyl-1,2,3,4-tetrahydroisoquinolin-4-yl)phenylsulfonamido)ethylphosphonic acid]	–	0.53	–	–	AUC [2]: 53 ng·h/mL; Cmax [2]: 21 ng/mL
C/C(=C\c1cc(F)c(Oc2ccc(S(=O)(=O)NCCOCCOCCOCCNC(=O)CCCCCCC(=O)NCCOCCOCCOCCNS(=O)(=O)c3ccc(Oc4c(F)cc(/C=C(\C)C(=O)N=C(N)N)cc4F)cc3)cc2)c(F)c1)C(=O)N=C(N)N [Example 47, N,N′-(13,20 dioxo-3,6,9, 24, 27, 30-hexaoxa-12, 21-diazadotriacontane-1,32-diyl)bis[(E)-N-(diaminomethylene)-3-(3,5-difluoro-4-(4-sulfamoylphenoxy)phenyl)-2-methylacrylamide]]	>7	< 0.01	–	–	–
CN1Cc2c(Cl)cc(Cl)cc2C(c2ccc(S(=O)(=O)NCCOCCOCCNC(=O)NCCCCNC(=O)NCCOCCOCCNS(=O)(=O)c3ccc(C4CN(C)Cc5c(Cl)cc(Cl)cc54)cc3)cc2)C1 (stereo not drawn) [Example 238, N,N′-(10,17-dioxo-3,6,21,24-tetraoxa-9,11,16,18-tetraazahexacosane-1,26-diyl)bis(4-(6,8-dichloro-2-methyl-1,2,3,4-tetrahydroisoquinolin-4-yl)benzenesulfonamide)]	–	–	121% of control	60	–
CN1Cc2c(Cl)cc(Cl)cc2[C@H](c2ccc(S(=O)(=O)NCCOCCOCCOCCNC(=O)NCCOCCOCCOCCNS(=O)(=O)c3ccc([C@@H]4CN(C)Cc5c(Cl)cc(Cl)cc54)cc3)cc2)C1 (single isomer, unassigned) [Example 250, (S or R)—N,N′-(13-oxo-3,6,9,17,20,23-hexaoxa-12,14-diazapentacosane-1,25-diyl)bis(4-((S or R)-6,8-dichloro-2-methyl-1,2,3,4-tetrahydroisoquinolin-4-yl)benzenesulfonamide)]	–	–	120% of control	60	IC50 (rat NHE-3): < 100 nM
CN1Cc2c(Cl)cc(Cl)cc2C(c2cccc(S(=O)(=O)NCCOCCOCCNC(=O)Nc3ccc(NC(=O)NCCOCCOCCNS(=O)(=O)c4cccc(C5CN(C)Cc6c(Cl)cc(Cl)cc65)c4)cc3)c2)C1 (stereo not drawn) [Example 237, N,N′-(2,2′-(2,2′-(2,2′-(1,4-phenylenebis(azanediyl))bis(oxomethylene)bis(azanediyl)bis(ethane-2,1-diyl))bis(oxy)bis(ethane-2,1-diyl))bis(oxy)bis(ethane-2,1-diyl))bis(3-(6,8-dichloro-2-methyl-1,2,3,4-tetrahydroisoquinolin-4-yl)benzenesulfonamide)]	>7	–	120% of control	60	–
CN1Cc2c(Cl)cc(Cl)cc2C(c2ccc(NS(=O)(=O)NCCP(=O)([O-])[O-])cc2)C1.[Na+].[Na+] (stereo not drawn) [Example 30, 2-(N-(4-(6,8-dichloro-2-methyl-1,2,3,4-tetrahydroisoquinolin-4-yl)phenyl)sulfamoylamino)ethylphosphonic acid]	5 to 6	0.56	–	–	–
NC(N)=Nc1nc(-c2cccc(N3CCN(C(=O)[C@H](O)[C@@H](O)[C@H](O)[C@H](O)CO)CC3)c2)c2cc(Cl)ccc2n1 [Example 63, 2-(6-chloro-4-(3-(4-((2R,3S,4R,5R)-2,3,4,5,6-pentahydroxyhexanoyl)piperazin-1-yl)phenyl)quinazolin-2-yl)guanidine]	5 to 6	0.43	–	–	–
